# Entries after “also recorded” stand apart in the source; their conditions may differ.
# Experiments:
# EAE mice [1] = assay: L-DOPS treatment of EAE mice (Example 10); format: in vivo
# Method: To test whether increased NA derived from the NA precursor L-DOPS could provide benefits in EAE, C57B16 mice were immunized with MOG35-55 peptide using standard procedures. At day 29 (FIG. 11A, arrow) after the booster MOG, 6 mice received daily injections of L-DOPS (using an intermediate dose of 200 mg/kg s.c.; plus 125 mg/kg bensazeride i.p. to block peripheral conversion to NA); control mice received saline. In the saline group, 4/6 mice were ill on day 29, and by day 36 all 6 were ill (FIG. 11A); the average clinical score increased from 1.3±0.4 (mean±se) on day 29 to 2.3±0.2 on day 37 (FIG. 11B). […] During treatment, scores of 2 of the 4 mice improved, and the average score decreased from 1.5±0.5 on day 29 to 1.2±0.4 on day 38.
# (§1) To assess disease severity, clinical signs were scored as follows: 0 indicated no clinical signs, 1 indicated a limp tail, 2 indicated an impaired righting of the animal, 3 indicated paresis of one hind limb, 4 indicated paresis of two hind limbs, and 5 indicated the death of the animal.
# EAE mice [2] = assay: L-DOPS, Atomoxetine and combination in EAE mice (Example 13); format: in vivo; details: from day 17 after booster MOG, tri-weekly, L-DOPS 400 mg/kg s.c. plus 125 mg/kg bensazeride i.p., Atomoxetine 20 mg/kg
# From the text: as §1
# To test whether increasing NA derived from the NA precursor L-DOPS in combination with a NA reuptake inhibitor could provide benefit in EAE, C57B16 mice were immunized with MOG35-55 peptide using standard procedures as described in Example 9.
# primary microglia = assay: Microglial phagocytosis of FITC-labeled Aβ1-42 (FACS); format: cell-based, mouse; details: 10 nM to 10 μM, 4 hr, FITC-Aβ1-42 150 μM
# Method: The ability of NA to modulate Aβ phagocytosis, another means by which amyloid plaque burden is regulated, was tested. Primary microglia were incubated with indicated concentrations of NA (FIG. 5A) or the β-AR agonist isoproterenol (FIG. 5B), in the presence of FITC-labeled Aβ1-42 (150 μM). After 4 hr, intracellular levels of Aβ were determined as described below.
# Primary murine microglial cells were generated at P1 according to standard protocols. Briefly, frontal cortices of one day old C57BL6 mice were used to prepare mixed glial cultures in T75 cm^2 flasks in DMEM containing 10% FCS and antibiotics (100 IU/mL of penicillin and 100 ug/mL of streptomycin; Sigma), and incubated at 37° C. in a humidified atmosphere containing 5% CO2. Microglia were detached from the astrocyte monolayer by gentle shaking 11-13 days after the dissection, and cultures were 95-98% Mac1 positive.
# FACS analysis was used to quantify microglial phagocytosis of Aβ1-42. […] Fluorescent signals due to cell adherent Aβ were eliminated by resuspending an aliquot of cells in an equal volume of 1 mg trypan blue/mL (Merck, Darmstadt, Germany) acetate buffer to quench extracellular fluorescence. The mean fluorescence intensity (MFI) was measured on a FACScan (Becton Dickinson, Mountain View, Calif.) equipped with an argon-ion laser (excitation wavelength at 488 nm, laser power 300 mW) and a band pass filter of 530 nm. […]
# BMP4 = assay: QPCR of BMP4 mRNA in primary astrocytes; format: cell-based
# Method: (§2) As shown in FIGS. 12C and 12D, BMP2 and BMP4 mRNA levels were decreased in astrocytes treated with NA. Data is mean±sd of n=2-3 experiments, and normalized to values for β-tubulin measured in the same samples.
# (§3) Further studies were carried out in which primary astrocytes were treated with 30 μM NA for 24 hours then mRNA levels of bone morphogenic proteins BMP2 and BMP4, Noggin, Gremlin, Follistatin and BAMBI were measured by QPCR (FIG. 16A). The results confirmed that BMP4 mRNA levels were decreased, whereas the Noggin mRNA levels were increased, in NA treated primary astrocytes (FIG. 16A).
# [3] = test system: oligodendrocyte progenitor cells (OPCs); assay: Oligosphere / OPC maturation by immunostaining; format: cell-based, mouse
# Method: Initial studies were carried out to identify treatments that influence OLG maturation using primary oligodendrocyte progenitor cells (OPCs) from E13 mouse pups. The cells were isolated as E13 neurospheres, and were shifted to OLG commitment (Oligospheres) by culture in PDGFα and bFGF. E13 Oligospheres were cultured on polylysine coated slides in media (containing bFGF and PDGFα) in the presence or absence of 25 μM NA. After 2 days the cells were fixed and stained with antibody to MBP (FIGS. 12A and 12B).
# Further studies were carried out in which the oligospheres were cultured on polylysine coated slides in media (containing bFGF and PDGFα) in the presence or absence of 20 μM NA. After 24 hours the cells were fixed and stained with antibodies for PDGFRa, Oligodendrocyte Marker O4 and PLP (FIGS. 13 and 14).
# P1 OPCs = assay: QPCR of myelin genes in P1 OPCs treated with NA; format: cell-based; details: NA versus saline
# Method: Additional studies were carried out in which QPCR analysis was performed for BMPs, BMP antagonists and myelin genes on P1 OPCs treated with saline or NA. The QPCR condition and primers are as described in Example 3. For QPCR experiments, RNA levels were calculated from QPCR take-off points, normalized for RNA values obtained for GDH; the average value for the vehicle treated RNA levels was set to 1.0. Comparisons were made using unpaired T-test, and P values <0.05 were considered to be significant. (FIGS. 15A and 15B).
# BMP2 = assay: QPCR of BMP2 mRNA in primary astrocytes; format: cell-based; details: 100 μM NA, 24 hr
# From the text: as §2
# primary neurons = assay: Aβ-induced neuronal damage in primary neurons (LDH release, FJ staining); format: cell-based; details: LDH release and FJ staining
# Method: The levels of neuronal damage, using LDH release as a neuronal damage marker, were measured as a percentage of control. C: control; Aβ: primary neurons treated with Aβ; Aβ+NA: primary neurons treated Aβ and NA; and Aβ+dbcAMP: primary neurons treated with Aβ and dbcAMP. […] The staining intensity was quantified as a percentage of control as illustrated in the graph in FIG. 9B.
# mouse neuronal N2A cells = assay: NEP activity in N2A cells incubated with NA; format: cell-based; details: N2A cells incubated with NA for 24 hr
# Method: Comparative real time RT-PCR (or quantitative PCR, QPCR) was used to measure mRNA levels of the Aβ degrading enzymes neprilysin (Nep) and insulin degrading enzyme (IDE) in brain samples from vehicle and DSP4 treated mice (FIG. 4A). Neprilysin activity in brain extracts was assayed by monitoring proteolysis of a fluorescent substrate (FIG. 4B). To assess the effects of dose, mouse neuronal N2A cells were incubated with increasing does of NA for 24 hr after which NEP activity was measured (FIG. 4D, data is mean±sd and is from n=3 samples).
# In the results shown in FIG. 4D, mouse neuronal N2A cells were incubated with NA for 24 hr after which NEP activity was measured. Data is mean±sd and is from n=3 samples.
# Noggin = Noggin mRNA (QPCR) and protein staining in primary astrocytes; format: cell-based
# Method: as §3
smiles,measurement,setting,value
"N[C@H](C(=O)O)[C@H](O)c1ccc(O)c(O)c1 [L-DOPS, (−)-threo-3-(3,4-dihydroxyphenyl)-L-serine]",clinical scores in EAE mice,EAE mice [1]; FIGS. 11A-11C,prevents the worsening of clinical scores
same,ill mice whose scores improved during treatment,EAE mice [1]; L-DOPS group,2 of the 4
same,incidence of disease during treatment,"EAE mice [1]; L-DOPS group after day 29, saline all 6 ill by day 36",did not further increase
same,mice ill on day 29,"EAE mice [1]; L-DOPS group, first day of treatment",4/6
same,"average clinical score, day 38","EAE mice [1]; daily L-DOPS 200 mg/kg s.c. plus 125 mg/kg bensazeride i.p. from day 29, saline 2.3±0.2 on day 37",1.2±0.4
same,"average clinical score, day 29","EAE mice [1]; first day of L-DOPS 200 mg/kg s.c. plus 125 mg/kg bensazeride i.p., mean±se",1.5±0.5
same,clinical scores / EAE symptoms,EAE mice [2],Benefits to EAE were seen; also recorded: stabilized scores
CC(C)NCC(O)c1ccc(O)c(O)c1 (stereo not shown) [isoproterenol],accumulation of fluorescently tagged Aβ1-42 (intracellular Aβ uptake),primary microglia,dose dependently increased
"NC[C@H](O)c1ccc(O)c(O)c1 [NA, noradrenaline]",BMP4 mRNA levels,"BMP4; 30 μM NA, 24 hours",decreased
same,BMP4 mRNA levels,"BMP4; 100 μM NA, 24 hr",decreased
same,accumulation of fluorescently tagged Aβ1-42 (intracellular Aβ uptake),primary microglia,dose dependently increased
same,"OPC maturation, PDGFRa, O4 and PLP staining","[3]; 20 μM NA, 24 hours",accelerated OPC maturation
same,"OPC maturation, PDGFa, O4 and PLP staining (figure legends)","[3]; 30 μM NA, 24 hours",induces more processes and greater a number of cells; also recorded: increased OPC maturation
same,"OPC maturation, MBP staining","[3]; E13 oligospheres, 25 μM NA, 2 days",accelerated OPC maturation
same,"OPC maturation by Olig1, Olig2, GALc and CGT mRNA levels",P1 OPCs,increases OPC maturation
same,BMP2 mRNA levels,BMP2,decreased
same,Aβ induced damage in primary neurons,primary neurons,reduces Aβ induced damage
same,NEP activity in cell culture,mouse neuronal N2A cells,increases NEP activity
same,Noggin protein expression (antibody staining),Noggin; NA-treated primary astrocytes,increased Noggin expression
same,Noggin mRNA levels,"Noggin; primary astrocytes, 30 μM NA, 24 hours",increased
CNCC[C@@H](Oc1ccccc1C)c1ccccc1 [Atomoxetine],clinical scores / EAE symptoms,EAE mice [2],no effect on clinical scores
same,clinical scores / EAE symptoms,EAE mice [2]; listed as Axtomoxtine,limited benefit

# From patent US8580776B2, “Compositions and methods for treating neurodegenerating diseases” (The Board of Trustees of the University of Illinois, priority 2007, dated 2013)
